Data published in the supplement of paper PMC10307832.

How the values were obtained:
Assay in all cases: relative viability (nuclei count vs DMSO), 5 days (fraction); higher = more cells survive
Neratinib + Olaparib = compound: CCOc1cc2ncc(C#N)c(Nc3ccc(OCc4ccccn4)c(Cl)c3)c2cc1NC(=O)/C=C/CN(C)C [Neratinib] + O=C(c1cc(Cc2n[nH]c(=O)c3ccccc23)ccc1F)N1CCN(C(=O)C2CC2)CC1 [Olaparib] (partner 8 µM)
Method in brief: (§1)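 One day after seeding in 1536-well plates, lung cancer cell lines were dosed by pin tool. Dosing was either single-drug or a fixed anchor-drug dose plus five library-drug doses (not always all listed) in √10 steps. After 5 days, nuclei were stained in one fix-and-stain step and counted on 4× images, and relative viability is the nuclei count of treated wells over that of vehicle wells, given as the median of duplicate plates.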

Neratinib + Palbociclib = compound: CCOc1cc2ncc(C#N)c(Nc3ccc(OCc4ccccn4)c(Cl)c3)c2cc1NC(=O)/C=C/CN(C)C [Neratinib] + CC(=O)c1c(C)c2cnc(Nc3ccc(N4CCNCC4)cn3)nc2n(C2CCCC2)c1=O [Palbociclib] (partner 0.5 µM)
Method in brief: as §1

Neratinib + Pemetrexed = compound: CCOc1cc2ncc(C#N)c(Nc3ccc(OCc4ccccn4)c(Cl)c3)c2cc1NC(=O)/C=C/CN(C)C [Neratinib] + Nc1nc2[nH]cc(CCc3ccc(C(=O)N[C@@H](CCC(=O)O)C(=O)O)cc3)c2c(=O)[nH]1 [Pemetrexed] (partner 0.2 µM)
Method in brief: as §1

Neratinib + Alpelisib = compound: CCOc1cc2ncc(C#N)c(Nc3ccc(OCc4ccccn4)c(Cl)c3)c2cc1NC(=O)/C=C/CN(C)C [Neratinib] + Cc1nc(NC(=O)N2CCC[C@H]2C(N)=O)sc1-c1ccnc(C(C)(C)C(F)(F)F)c1 [Alpelisib] (partner 2 µM)
Method in brief: as §1

Row | Cell Line | relative viability (Neratinib + Olaparib; first compound 0.01 µM) | relative viability (Neratinib + Olaparib; first compound 0.03162 µM) | relative viability (Neratinib + Olaparib; first compound 0.1 µM) | relative viability (Neratinib + Olaparib; first compound 0.3162 µM) | relative viability (Neratinib + Olaparib; first compound 1 µM) | relative viability (Neratinib + Palbociclib; first compound 0.01 µM) | relative viability (Neratinib + Palbociclib; first compound 0.03162 µM) | relative viability (Neratinib + Palbociclib; first compound 0.1 µM) | relative viability (Neratinib + Palbociclib; first compound 0.3162 µM) | relative viability (Neratinib + Palbociclib; first compound 1 µM) | relative viability (Neratinib + Pemetrexed; first compound 0.01 µM) | relative viability (Neratinib + Pemetrexed; first compound 0.03162 µM) | relative viability (Neratinib + Pemetrexed; first compound 0.1 µM) | relative viability (Neratinib + Pemetrexed; first compound 0.3162 µM) | relative viability (Neratinib + Pemetrexed; first compound 1 µM) | relative viability (Neratinib + Alpelisib; first compound 0.01 µM) | relative viability (Neratinib + Alpelisib; first compound 0.03162 µM) | relative viability (Neratinib + Alpelisib; first compound 0.1 µM) | relative viability (Neratinib + Alpelisib; first compound 0.3162 µM) | relative viability (Neratinib + Alpelisib; first compound 1 µM)
1 | 201T | 0.811 | 0.813 | 0.737 | 0.782 | 0.838 | 0.361 | 0.351 | 0.343 | 0.321 | 0.335 | 0.358 | 0.373 | 0.316 | 0.35 | 0.324 | 1.06 | 0.945 | 0.926 | 1.01 | 0.9
2 | A549 | 0.356 | 0.555 | 0.276 | 0.296 | 0.176 | – | – | – | – | – | – | – | – | – | – | 0.79 | 0.601 | 0.458 | – | 0.291
3 | A-427 | 0.826 | 0.883 | 0.56 | 0.71 | 0.553 | 0.554 | 0.576 | 0.565 | 0.488 | 0.513 | 1.13 | 1.05 | 0.975 | 0.897 | 0.866 | 1.01 | 1.16 | 1.06 | – | 0.521
4 | ABC-1 | 0.835 | 0.979 | 0.946 | 0.631 | 0.489 | 0.618 | 0.721 | 0.472 | 0.587 | 0.486 | – | – | – | – | – | 1.16 | 1.04 | 0.726 | 0.904 | 0.384
5 | BEN | 1.15 | 1.21 | 0.863 | 0.932 | 0.816 | 0.459 | 0.47 | 0.45 | 0.457 | 0.447 | 0.971 | 0.929 | 0.751 | 0.778 | 0.623 | 1.06 | 1.28 | 0.983 | 1.04 | 0.598
6 | CAL-12T | 0.698 | 0.707 | 0.709 | 0.406 | 0.343 | 0.41 | 0.478 | 0.179 | 0.118 | 0.184 | 1.38 | 1.17 | 0.946 | 0.798 | 0.329 | 1.1 | 1.21 | 0.886 | 0.517 | 0.201
7 | COR-L23 | 0.349 | 0.398 | 0.275 | 0.365 | 0.311 | 0.328 | 0.333 | 0.275 | 0.255 | 0.216 | 0.206 | 0.199 | 0.211 | 0.187 | 0.191 | 0.971 | 0.83 | 0.732 | 0.698 | 0.322
8 | COR-L 105 | 0.641 | – | 0.506 | 0.414 | 0.419 | 0.397 | 0.451 | 0.385 | 0.351 | 0.341 | 1.11 | 1.13 | 0.857 | 0.484 | 0.37 | 1.04 | 0.936 | 0.704 | 0.263 | 0.255
9 | Calu-6 | 0.507 | 0.643 | 0.568 | 0.518 | 0.369 | – | – | – | – | – | – | – | – | – | – | 0.992 | 1.05 | 1.01 | 0.835 | 0.451
10 | ChaGo-K-1 | 0.412 | 0.469 | 0.331 | 0.392 | 0.401 | 0.997 | 0.986 | 0.93 | 0.956 | 0.867 | 0.247 | 0.274 | 0.248 | 0.429 | 0.233 | – | – | – | – | –
11 | EKVX | 0.86 | – | 0.624 | 0.341 | 0.203 | 0.384 | 0.448 | 0.243 | 0.132 | 0.152 | 0.413 | 0.421 | 0.288 | 0.232 | 0.167 | 0.878 | 0.973 | 0.645 | 0.284 | 0.161
12 | EMC-BAC-2 | 0.521 | 0.481 | 0.501 | 0.528 | 0.45 | 0.538 | 0.526 | 0.492 | 0.532 | 0.41 | 0.473 | 0.495 | 0.435 | 0.451 | 0.475 | 0.774 | – | 0.667 | 0.576 | 0.301
13 | EPLC-272H | 0.645 | 0.643 | 0.558 | 0.512 | 0.253 | 0.357 | 0.309 | 0.224 | 0.295 | 0.292 | 0.27 | 0.356 | 0.262 | 0.281 | 0.233 | 0.962 | 0.87 | 0.699 | 0.71 | 0.352
14 | H3255 | 0.58 | 0.571 | 0.463 | 0.264 | 0.214 | 0.304 | 0.324 | 0.305 | 0.256 | 0.201 | 0.556 | 0.568 | 0.469 | 0.332 | 0.226 | 0.706 | – | 0.468 | 0.171 | 0.107
15 | HARA | 0.811 | – | 0.778 | – | 0.48 | 0.24 | 0.275 | 0.237 | 0.195 | 0.227 | 0.317 | 0.276 | 0.196 | – | 0.238 | – | 0.813 | 0.545 | 0.385 | 0.264
